Test results reported in patent US12570643B2, “3-aryloxy-3-five-membered heteroaryl propylamine compound, and crystal form and use thereof” (Shanghai Leado Pharmatech Co. Ltd., priority 2019, dated 2026).

Key:
[1] = test system: postoperative pain model in rat; experiment: Postoperative pain model in rat, mechanical hyperalgesia test; assay type: in vivo; conditions: 10 mg/kg intramuscular injection
Description: Injection of compound I-1: 36.13 mg of compound I-1 prepared in Example 2 was weighed and added into 3.140 mL of normal saline, and well mixed by vortex;
The solvent of the test compound I-1 was normal saline, the administration dose was 10 mg/kg, and the administration method was intramuscular injection. 36.13 mg of the compound I-1 was weighed and added into 3.140 mL normal saline, and well mixed by vortex. The reference compound used in the experiment was bupivacaine injection, purchased from Shanghai Zhaohui Pharmaceutical Co., Ltd., in a dose of 10 mg/kg via intramuscular injection.
Aseptic operation was performed during surgery, surgical instruments (scissors, forceps, scalpel, surgical cotton, suture thread) were disinfected before the operation. The rats were anesthetized with sodium pentobarbital (50 mg/kg, intraperitoneal injection), and the toes of the rats were squeezed to confirm that the animals were completely anesthetized before the surgery. Ophthalmic ointment was applied to the animal's eyes to prevent the animal's cornea from drying out. Iodophor and 70% ethanol were used to disinfect the skin of the surgery area on the sole of the left hind foot three times, and the surgery was started after the skin was dried. Starting at 0.5 cm from the heel, a 1 cm long incision was made longitudinally toward the toe. After cutting the skin, the flexor digitorum brevis was lifted to make longitudinal blunt injury. After pressing to stop the bleeding, the wound was sutured. The surgical instruments were cleaned and sterilized with hot bead sterilizer. After the surgery, the animals were placed on an electric blanket and injected subcutaneously with 5 mL normal saline to prevent dehydration. When the animal was completely awake (free to move), put the animal back into the cage. […]
The rat was placed alone in a plexiglass box with a grid on the bottom of the box to ensure that the rat's feet can be tested. […] During the test, the animal's rapid foot shrinkage was recorded as a pain response. The animal's foot shrinkage when the test fiber left the animal's skin was also recorded as a pain response. If the animal moved or walked, it would not be recorded as the pain response, the test should be repeated. […] The mechanical hyperalgesia test results are recorded in the table of FIG. 10, in which pain response is indicated with an “x” and no pain response is indicated with an “o.”
Mechanical hyperalgesia was expressed as the paw withdrawal threshold (PWT) in the behavioral test of rats, which was calculated according to the following equation: 50% response threshold (g)=(10(Xf+k))/10,000 • Xf=the final test fiber value used in the test • K=table value (Chaplan et al. 1994, page 62) • □=Average difference 5. […]

[2] = test system: acetic acid writhing pain model in mice; experiment: Acetic acid writhing pain model in mice; assay type: in vivo, ICR mice; conditions: 10 mg/kg intragastric, acetic acid 1 hour after administration; normal saline group 49 times
Description: ICR mice, male, 22-25 g, were fasted for food 2 h before administration, but can have water. All ICR mice were weighed and randomly grouped with the number of animals>10 per group. […] The mice were administered via intragastric administration according to the weight of mice. 1.5% acetic acid solution (0.1 ml/10 g) was intraperitoneally injected at 1 hour after administration, and the number of times of visceral pain in each group within 30 minutes was observed, the mice were counted once when the abdomen was concave, the trunk and hind legs were extended and the hips were elevated, and the number of times of these phenomena occurred within 30 min was finally counted.

TRPA1 = molecular target: T1, TRPA1 (Mus musculus, UniProt Q8BLA8); experiment: TRPA1 inhibitory activity, IonWorks Barracuda (IWB) automatic patch clamp detection; assay type: cell-based; conditions: HEK293 cells stably expressing TRPA1, AITC-induced current; read-out: IC50(μM) against TRPA1 in automatic patch clamp detection
T1 construct: expressed in transfected cells; host or cells: HEK293 cells stably expressing TRPA1
Description: In this example, the compounds prepared in some examples of the present invention (shown in Table 1) were tested for their inhibitory activity on the transient receptor potential channel protein TRPA1. Wherein, compound of formula A (WO2010075353) was used as positive control: […]
Test method by using IonWorks Barracuda (IWB) automatic patch clamp detection: HEK293 cells stably expressing TRPA1 were placed in a 37° C., 5% CO2 incubator and incubated with DMEM medium containing 15 μg/mL Blasticidin S HCl, 200 μg/mL Hygromycin B and 10% FBS serum in a T175 culture flask. When the cell density grew to […], the culture medium was removed, the cells were washed with calcium and magnesium free phosphate buffered saline (PBS), and 3 mL of Trypsin was added and digested for 2 minutes, and 7 mL of culture medium was added to terminate the digestion. […]
Data recording and current amplitude measurement and export were completed by IWB Software (version 2.5.3, Molecular Devices Corporation, Union City, CA). The statistics of the well with a sealing impedance lower than 20 M Ω were not recorded. The original current data was corrected by software, the TRPA1 current amplitude was measured in +100 mV. […] The dose-effect curve and IC50 of compounds were fitted and calculated by GraphPad Prism 5.02 (GraphPad Software, San Diego, CA).

[3] = test system: formalin pain model in mice; experiment: Formalin pain model in mice; assay type: in vivo, C57BL/6 mice; conditions: Mus musculus, ip; intraperitoneal, phase II (10-60 min), dose that halves licking time vs blank control; read-out: analgesic potency ED50 in phase II pain
Excerpt: 150 C57BL/6 mice (male, 9 weeks) were randomly divided into 15 groups with 10 mice for each group, and were used for the analgesic activity test of 3 compounds in the formalin pain model in mice: the compound I-1 group (compound I-1 prepared in Example 2, its hydrochloride was used in the experiment), the S-duloxetine group (its hydrochloride was used in the experiment) and the compound C1 group (compound C1 prepared in Comparative Example 1, its hydrochloride was used in the experiment), respectively. Before the start of the experiment, the mice were allowed to adapt to the experimental environment for 72 hours, during which there was no need to fast for food or water. The tested drugs were administrated by intraperitoneal injection, and the doses were as follows: • The compound I-1 group: blank Vehicle (blank normal saline control), 0.1 mg/kg, 0.5 mg/kg, 1 mg/kg, 5 mg/kg and 10 mg/kg; • The S-duloxetine group: blank Vehicle (blank normal saline control), 1 mg/kg, 5 mg/kg, 10 mg/kg and 20 mg/kg; • The Compound C1 group: blank Vehicle (blank normal saline control), 0.1 mg/kg, 0.5 mg/kg, 1 mg/kg, 5 mg/kg and 10 mg/kg.
After the administration, the mice were placed in a transparent, ventilated plexiglass cylinder, and 1 hour later, 20 μl of 4% formalin solution was injected into the left hind foot plantar of each group of mice with a micro-injector, and foot pain response in mice were recorded in real time with a miniature camera. The length of time of licking the left foot was used as an indicator of pain response, the licking time were observed and recorded during two periods of 0-10 min (phase I) and 10-60 min (phase II) respectively, for statistical analysis, and the half effective dose (ED50) of the 3 compounds were calculated: ED50 refers to the drug dose that reduces the licking time by half compared with the blank control group. The smaller the ED50 value is, the lower the effective analgesic dose of the compound is and the better its analgesic effect is.

SNL model in rat = experiment: SNL model in rat, mechanical hyperalgesia test; assay type: in vivo, SD rats; conditions: 100 mg/kg intragastric, 1 hour after administration; control group 3.967 ± 0.775
Description: SD rats were taken for surgery, male, SPF grade, mass 150 g-180 g. The surgical procedure was performed aseptically. The animals were anesthetized with sodium pentobarbital (50 mg/kg, intraperitoneal injection). The surgical area of the waist of animals was shaved, and the skin was disinfected three times with iodophor and 70% ethanol. Start the operation after the skin was dry. A longitudinal incision was made in the posterior part of the sacral bone of the animal's waist with a scalpel to expose the left paravertebral muscles, and the muscle tissue was separated with a distractor to expose the vertebra. The left spinal nerves L5 and L6 were separated, ligated with 6-0 silk thread, and the wounds were sutured. After the surgery, the animals were placed on an electric blanket and injected subcutaneously with 5 mL normal saline to prevent dehydration. When the animal was completely awake (free to move), put the animal back into the cage.
After the surgery, the animals were adapted in the experimental environment for 15 minutes/day for 3 days.
After administration, mechanical hyperalgesia test was performed. The rats were placed individually in a plexiglas box with a grid at the bottom of the box to ensure that the feet of the rats can be tested. Rats would adapt for 15 minutes before the test. […] The rapid paw withdrawal of the animal during the test was recorded as a pain response. The paw withdrawal of the animal when the test fiber left the animal's skin was also recorded as a pain response. If the animal moved or walked, it will not be recorded as a pain response, the test should be repeated. […]
Mechanical hyperalgesia was expressed as the paw withdrawal threshold (PWT) in the behavioral test of rats, which was calculated according to the following equation: 50% response threshold (g)=(10(^Xf+kδ))/10,000 • Xf=the final test fiber value used in the test • K=table value • δ=Average difference
Data were collected using Excel software and analyzed using Prism 6.01 (Graph pad software, Inc.) software.

[4] = test system: hot plate induced pain model in rat; experiment: Hot plate induced pain model in rat; assay type: in vivo, Sprague-Dawley rats; conditions: 100 mg/kg intraperitoneal
Description: Male, mature and unmated healthy Sprague-Dawley rats were selected, and the temperature of the cold/hot plate (product model: PE34, US IITC) was adjusted to a constant temperature of 53±0.1° C., and rats with painful response such as foot licking, foot shaking or slight jumping within 5-10 s were screened (abandoned those who evaded and jumped). […] The tested compound was freshly formulated on the day of administration. A 0.9% NaCl normal saline solution was prepared as a vehicle, an appropriate amount of the test compound was added to the required volume of normal saline, and the mixture was fully suspended to prepare the drug at a concentration of 1 mg/ml. […] The latency of thermal pain was measured at 0.5 h, 1 h and 2 h after drug administration. To avoid scalding the animals on the hot plate, the maximum latency was set to 30 s. The analgesic effect of each compound was evaluated using the maximum possible effect (MPE), i.e. MPE %=[(Post drug latency-baseline latency)/(30−baseline latency)]×100. Statistics of MPE % at different time points.

T1 sequence (Q8BLA8 whole entry): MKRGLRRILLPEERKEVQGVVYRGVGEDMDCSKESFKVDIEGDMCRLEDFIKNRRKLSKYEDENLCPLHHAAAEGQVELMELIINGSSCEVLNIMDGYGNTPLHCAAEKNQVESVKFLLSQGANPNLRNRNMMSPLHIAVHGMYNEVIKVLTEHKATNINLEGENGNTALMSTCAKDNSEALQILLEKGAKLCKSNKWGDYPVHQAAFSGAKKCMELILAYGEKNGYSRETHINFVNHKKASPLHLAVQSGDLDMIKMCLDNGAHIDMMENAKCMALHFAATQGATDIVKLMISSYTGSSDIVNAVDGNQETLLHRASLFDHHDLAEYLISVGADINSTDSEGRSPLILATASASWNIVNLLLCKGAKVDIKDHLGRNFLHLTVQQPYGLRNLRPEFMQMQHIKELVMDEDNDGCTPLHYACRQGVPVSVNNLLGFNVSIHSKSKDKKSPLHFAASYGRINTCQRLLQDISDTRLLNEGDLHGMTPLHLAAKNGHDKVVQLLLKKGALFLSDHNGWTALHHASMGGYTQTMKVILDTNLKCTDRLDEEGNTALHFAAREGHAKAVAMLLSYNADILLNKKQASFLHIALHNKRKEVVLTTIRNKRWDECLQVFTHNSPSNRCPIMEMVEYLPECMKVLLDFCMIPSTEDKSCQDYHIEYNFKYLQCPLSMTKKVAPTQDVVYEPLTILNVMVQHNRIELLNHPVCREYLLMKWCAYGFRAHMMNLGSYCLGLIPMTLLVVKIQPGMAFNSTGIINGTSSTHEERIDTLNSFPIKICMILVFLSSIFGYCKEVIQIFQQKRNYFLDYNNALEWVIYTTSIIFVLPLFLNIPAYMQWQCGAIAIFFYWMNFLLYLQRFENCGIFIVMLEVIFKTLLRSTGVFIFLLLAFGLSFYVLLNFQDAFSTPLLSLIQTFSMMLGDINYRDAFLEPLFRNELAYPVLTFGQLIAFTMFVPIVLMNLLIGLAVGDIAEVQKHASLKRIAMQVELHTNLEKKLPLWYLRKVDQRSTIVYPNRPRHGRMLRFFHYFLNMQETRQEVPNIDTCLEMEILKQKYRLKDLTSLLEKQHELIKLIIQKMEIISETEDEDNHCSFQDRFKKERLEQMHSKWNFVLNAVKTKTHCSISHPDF

Question: `CCCCN1CCCCC1C(=O)Nc1c(C)cccc1C` (stereo not drawn) [Bupivacaine, bupivacaine] was tested. Which “PWT” value ([1]; 1 hour after administration, Normal Saline 3.561) did it give?
Answer: Its value is 11.587 g.

Question: What about the “PWT” value ([1]; 2 hours after administration, Normal Saline 3.382) of the same compound?
Answer: Its value is 4.448 g.

Question: `CN1[C@H]2C[C@H](OC(=O)[C@H](CO)c3ccccc3)C[C@@H]1[C@@H](O)C2` [anisodamine, Anisodamine] was tested. Which “number of visceral pains (writhing reactions) within 30 min” value [2] did it give?
Answer: The value was 27 times.

Question: With `CNCC[C@@H](Oc1cccc2ccccc12)c1cccs1` [R-Duloxetine, R-duloxetine] as the compound, how does the IC50 (TRPA1) read?
Answer: Its IC50 is 21 to 50 µM.

Question: How did the ED50 [3] turn out when `CNCC[C@H](Oc1cccc2ccoc12)c1cccs1` [Compound C1, (S)-3-(benzofuran-7-yloxy)-N-methyl-3-(thiophen-2-yl)propan-1-amine] was run?
Answer: The ED50 was 2.22 mg/kg.

Question: What does the source list for `NCC1(CC(=O)O)CCCCC1` [Gabapentin, gabapentin]?
Answer: PWT (SNL model in rat): 6.352 ± 1.897 g; MPE % ([4]; 0.5 h): 6.47 ± 5.49%; MPE % ([4]; 1 h): 14.56 ± 6.18%; MPE % ([4]; 2 h): 22.66 ± 4.93%
